According to US9738657B2, “Highly efficient polarizing agents for dynamic nuclear polarization” (Bruker Biospin S.A.S., priority 2013, dated 2017):
≈ marks a conversion by molar mass, not a printed value.

Assay: Solubility in Glycerol/H2O (60/40)
Conditions: Glycerol/H2O (60/40)

Compound | Solubility in Glycerol/H2O (60/40) [mM]
4,4-ureylene-di-(2,2,6,6-tetramethylpiperidinyloxyl) [bTUrea, reference compound] | ~3
(4-{3-[1-(PEG)-1H-1,2,3-Triazol-4-yl]propyl}[(1-oxyl-2,2,6,6-tetramethylpiperidin-4-yl)carbamoyl]amino}-2,2,6,6-tetramethylpiperidin-1-yl)oxidanyl [Compound 61] | ~20
(4-{(2,5,8,11-tetraoxatridecan-13-yl)[(1-oxyl-2,2,6,6-tetramethyl piperidin-4-yl)carbamoyl]amino}-2,2,6,6-tetramethylpiperidin-1-yl)oxidanyl [Compound 52] | ~10
(4-{[2-(2-methoxyethoxy)ethyl][(1-oxyl-2,2,6,6-tetramethylpiperidin-4-yl)carbamoyl]amino}-2,2,6,6-tetramethylpiperidin-1-yl)oxidanyl [Compound 51] | ~10
(15-{[(7-oxyl-3,11-dioxa-7-azadispiro[5.1.5.3]hexadec-15-yl)carbamoyl][2-(2,5,8,11-tetraoxatridecan-13-ylamino)}-[3,11-dioxa-7-azadispiro[5.1.5.3]hexadec-7-yl])oxidanyl [Compound 58] | ~25
(15-{[(7-oxyl-3,11-dioxa-7-azadispiro[5.1.5.3]hexadec-15-yl)carbamoyl][2-(2-methoxyethoxy)ethyl]amino}-[3,11-dioxa-7-azadispiro[5.1.5.3]hexadec-7-yl])oxidanyl [Compound 57] | ~25
α-{(7-Oxyl-3,11-dioxa-7-azadispiro[5.1.5.3]hexadec-15-yl)[(7-oxyl-3,11-dioxa-7-azadispiro[5.1.5.3]hexadec-15-yl)carbamoyl]amino}ω-methylpoly(ethane-1,2-diyloxy) [Compound 72] | >20

Same assay, conditions: glycerol/water (60/40), aqueous with cosolvent or surfactant or cyclodextrin

Compound | solubility [mM]
[O]N1C2(CCOCC2)CC(NC(=O)NC2CC3(CCOCC3)N([O])C3(CCOCC3)C2)CC12CCOCC2 (stereo not shown) [Compound 56, (15-{[(7-Oxyl-3,11-dioxa-7-azadispiro[5.1.5.3]hexadec-15-yl)carbamoyl]amino}-[3,11-dioxa-7-azadispiro[5.1.5.3]hexadec-7-yl])oxidanyl] | ~25 (≈ 13.4 mg/mL)
COCCOCCOCCOCCOC1CN(C2CC3(CCOCC3)N([O])C3(CCOCC3)C2)C(=O)N(C2CC3(CCOCC3)N([O])C3(CCOCC3)C2)C1 (stereo not shown) [Compound 70, 1,3-Bis(7-oxyl-3,11-dioxa-7-azadispiro[5.1.5.3]hexadec-15-yl)-5-(2,5,8,11-tetraoxatridecan-13-yloxy)tetrahydropyrimidin-2(1H)-one] | > 10
O=C(NC1CC2(CCOCC2)N(O)C2(CCOCC2)C1)N(CCOCCO)C1CC2(CCOCC2)N(O)C2(CCOCC2)C1 (stereo not shown) [Compound 71, (15-{[(7-Oxyl-3,11-dioxa-7-azadispiro[5.1.5.3]hexadec-15-yl)carbamoyl][2-(2-hydroxyethoxy)ethyl]amino}-[3,11-dioxa-7-azadispiro[5.1.5.3]hexadec-7-yl])oxidanyl] | > 20
